Reference: PubChem BioAssay (NCI)
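Values below derive from 48-hour exposures of cells grown in 96-well plates, with endpoints linearly interpolated between the two concentrations bracketing the appropriate inhibition level. At the GI50, growth is halved. TGI denotes the concentration required for complete inhibition of growth.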

Columns and labels:
Test in all cases: inhibition of tumour cell growth, NCI panel, 48 h
786-0 renal = test system: 786-0 renal
A498 renal = test system: A498 renal
A549 NSCLC = test system: A549 NSCLC
ACHN renal = test system: ACHN renal
BT-549 breast = test system: BT-549 breast
CAKI-1 renal = test system: CAKI-1 renal
CCRF-CEM leukemia = test system: CCRF-CEM leukemia
COLO 205 colon = test system: COLO 205 colon
DU-145 prostate = test system: DU-145 prostate
EKVX NSCLC = test system: EKVX NSCLC
HCC-2998 colon = test system: HCC-2998 colon
HCT-116 colon = test system: HCT-116 colon
HCT-15 colon = test system: HCT-15 colon
HL-60(TB) leukemia = test system: HL-60(TB) leukemia
HOP-62 NSCLC = test system: HOP-62 NSCLC
HOP-92 NSCLC = test system: HOP-92 NSCLC
HS 578T breast = test system: HS 578T breast
HT29 colon = test system: HT29 colon
IGROV1 ovarian = test system: IGROV1 ovarian
K-562 leukemia = test system: K-562 leukemia
KM12 colon = test system: KM12 colon
LOX IMVI melanoma = test system: LOX IMVI melanoma
M14 melanoma = test system: M14 melanoma
MALME-3M melanoma = test system: MALME-3M melanoma
MCF7 breast = test system: MCF7 breast
MDA-MB-231 breast = test system: MDA-MB-231 breast
MDA-MB-435 = test system: MDA-MB-435
MOLT-4 leukemia = test system: MOLT-4 leukemia
NCI-H226 lung = test system: NCI-H226 lung
NCI-H23 lung = test system: NCI-H23 lung
NCI-H460 lung = test system: NCI-H460 lung
NCI-H522 lung = test system: NCI-H522 lung
NCI/ADR-RES ovarian = test system: NCI/ADR-RES ovarian
OVCAR-3 ovarian = test system: OVCAR-3 ovarian
OVCAR-4 ovarian = test system: OVCAR-4 ovarian
OVCAR-5 ovarian = test system: OVCAR-5 ovarian
OVCAR-8 ovarian = test system: OVCAR-8 ovarian
PC-3 prostate = test system: PC-3 prostate
RPMI-8226 leukemia = test system: RPMI-8226 leukemia
RXF 393 renal = test system: RXF 393 renal
SF-268 CNS = test system: SF-268 CNS
SF-295 CNS = test system: SF-295 CNS
SF-539 CNS = test system: SF-539 CNS
SK-MEL-2 melanoma = test system: SK-MEL-2 melanoma
SK-MEL-28 melanoma = test system: SK-MEL-28 melanoma
SK-MEL-5 melanoma = test system: SK-MEL-5 melanoma
SK-OV-3 ovarian = test system: SK-OV-3 ovarian
SN12C renal = test system: SN12C renal
SNB-19 CNS = test system: SNB-19 CNS
SNB-75 CNS = test system: SNB-75 CNS
SR leukemia = test system: SR leukemia
SW-620 colon = test system: SW-620 colon
T-47D breast = test system: T-47D breast
TK-10 renal = test system: TK-10 renal
U251 CNS = test system: U251 CNS
UACC-257 melanoma = test system: UACC-257 melanoma
UACC-62 melanoma = test system: UACC-62 melanoma
UO-31 renal = test system: UO-31 renal

Cc1cc(O)ccc1C1=NN(c2ccc(S(C)(=O)=O)cc2)C(=O)CC1 was tested, and the GI50 (786-0 renal) was 92.5 µM, the TGI (786-0 renal) was > 100 µM and the GI50 (A498 renal) was 2.78 µM. For the same molecule, the TGI (A498 renal) was 45.4 µM, the GI50 (A549 NSCLC) was 6.2 µM and the TGI (A549 NSCLC) was > 100 µM. For the same molecule, the GI50 (ACHN renal) was 37.8 µM, the TGI (ACHN renal) was > 100 µM and the GI50 (BT-549 breast) was 4.97 µM. The TGI (BT-549 breast) was > 100 µM, the GI50 (CAKI-1 renal) was 2.79 µM and the TGI (CAKI-1 renal) was 16.5 µM. For the same molecule, the GI50 (CCRF-CEM leukemia) was 9.09 µM, the TGI (CCRF-CEM leukemia) was > 100 µM and the GI50 (COLO 205 colon) was 6.62 µM. The TGI (COLO 205 colon) was 74.4 µM, the GI50 (DU-145 prostate) was 24.7 µM and the TGI (DU-145 prostate) was > 100 µM. The GI50 (EKVX NSCLC) was 57.9 µM, the TGI (EKVX NSCLC) was > 100 µM and the GI50 (HCC-2998 colon) was 46.7 µM. For the same molecule, the TGI (HCC-2998 colon) was > 100 µM, the GI50 (HCT-116 colon) was 3.78 µM and the TGI (HCT-116 colon) was > 100 µM. For the same molecule, the GI50 (HCT-15 colon) was 7.91 µM, the TGI (HCT-15 colon) was > 100 µM and the GI50 (HL-60(TB) leukemia) was 3.52 µM. The TGI (HL-60(TB) leukemia) was 48.4 µM, the GI50 (HOP-62 NSCLC) was 9.07 µM and the TGI (HOP-62 NSCLC) was > 100 µM. For the same molecule, the GI50 (HOP-92 NSCLC) was 6.49 µM, the TGI (HOP-92 NSCLC) was > 100 µM and the GI50 (HS 578T breast) was 4.15 µM. The TGI (HS 578T breast) was > 100 µM, the GI50 (HT29 colon) was 3.7 µM and the TGI (HT29 colon) was 32.3 µM. The GI50 (IGROV1 ovarian) was 7.13 µM, the TGI (IGROV1 ovarian) was > 100 µM and the GI50 (K-562 leukemia) was 3.74 µM. The TGI (K-562 leukemia) was > 100 µM, the GI50 (KM12 colon) was 4.22 µM and the TGI (KM12 colon) was > 100 µM. The GI50 (LOX IMVI melanoma) was 7.25 µM, the TGI (LOX IMVI melanoma) was > 100 µM and the GI50 (M14 melanoma) was 3.85 µM. For the same molecule, the TGI (M14 melanoma) was > 100 µM, the GI50 (MALME-3M melanoma) was 5.37 µM and the TGI (MALME-3M melanoma) was > 100 µM. For the same molecule, the GI50 (MCF7 breast) was 20.7 µM, the TGI (MCF7 breast) was > 100 µM and the GI50 (MDA-MB-231 breast) was 17.1 µM. The TGI (MDA-MB-231 breast) was > 100 µM, the GI50 (MDA-MB-435) was 1.28 µM and the TGI (MDA-MB-435) was 5.83 µM. The GI50 (MOLT-4 leukemia) was 14.3 µM, the TGI (MOLT-4 leukemia) was > 100 µM and the GI50 (NCI-H226 lung) was > 100 µM. The TGI (NCI-H226 lung) was > 100 µM, the GI50 (NCI-H23 lung) was 38.5 µM and the TGI (NCI-H23 lung) was > 100 µM. The GI50 (NCI-H460 lung) was 3.87 µM, the TGI (NCI-H460 lung) was > 100 µM and the GI50 (NCI-H522 lung) was 2.53 µM. For the same molecule, the TGI (NCI-H522 lung) was 8.6 µM, the GI50 (NCI/ADR-RES ovarian) was 3.26 µM and the TGI (NCI/ADR-RES ovarian) was > 100 µM. The GI50 (OVCAR-3 ovarian) was 3.41 µM, the TGI (OVCAR-3 ovarian) was 9.44 µM and the GI50 (OVCAR-4 ovarian) was 76.9 µM. For the same molecule, the TGI (OVCAR-4 ovarian) was > 100 µM, the GI50 (OVCAR-5 ovarian) was 53.8 µM and the TGI (OVCAR-5 ovarian) was > 100 µM. For the same molecule, the GI50 (OVCAR-8 ovarian) was 12.3 µM, the TGI (OVCAR-8 ovarian) was > 100 µM and the GI50 (PC-3 prostate) was 14.8 µM. For the same molecule, the TGI (PC-3 prostate) was > 100 µM, the GI50 (RPMI-8226 leukemia) was 25.6 µM and the TGI (RPMI-8226 leukemia) was > 100 µM. For the same molecule, the GI50 (RXF 393 renal) was 12.8 µM, the TGI (RXF 393 renal) was > 100 µM and the GI50 (SF-268 CNS) was 40 µM. For the same molecule, the TGI (SF-268 CNS) was > 100 µM, the GI50 (SF-295 CNS) was 2.87 µM and the TGI (SF-295 CNS) was 12.4 µM. For the same molecule, the GI50 (SF-539 CNS) was 13.2 µM, the TGI (SF-539 CNS) was > 100 µM and the GI50 (SK-MEL-2 melanoma) was 3.48 µM. The TGI (SK-MEL-2 melanoma) was 32.8 µM, the GI50 (SK-MEL-28 melanoma) was 9.55 µM and the TGI (SK-MEL-28 melanoma) was > 100 µM. The GI50 (SK-MEL-5 melanoma) was 5.49 µM, the TGI (SK-MEL-5 melanoma) was > 100 µM and the GI50 (SK-OV-3 ovarian) was 9.77 µM. For the same molecule, the TGI (SK-OV-3 ovarian) was > 100 µM, the GI50 (SN12C renal) was 7.18 µM and the TGI (SN12C renal) was > 100 µM. For the same molecule, the GI50 (SNB-19 CNS) was 50.4 µM, the TGI (SNB-19 CNS) was > 100 µM and the GI50 (SNB-75 CNS) was 5.53 µM. The TGI (SNB-75 CNS) was 75.2 µM, the GI50 (SR leukemia) was 3.39 µM and the TGI (SR leukemia) was > 100 µM. The GI50 (SW-620 colon) was 3.32 µM, the TGI (SW-620 colon) was > 100 µM and the GI50 (T-47D breast) was 20.2 µM. For the same molecule, the TGI (T-47D breast) was > 100 µM, the GI50 (TK-10 renal) was 80.5 µM and the TGI (TK-10 renal) was > 100 µM. The GI50 (U251 CNS) was 4.3 µM, the TGI (U251 CNS) was > 100 µM and the GI50 (UACC-257 melanoma) was 5.65 µM. The TGI (UACC-257 melanoma) was > 100 µM, the GI50 (UACC-62 melanoma) was 4 µM and the TGI (UACC-62 melanoma) was > 100 µM. The GI50 (UO-31 renal) was 14.8 µM and the TGI (UO-31 renal) was > 100 µM.
